Experiments:
[1] = target: human orexin-2 receptor (Homo sapiens (Human), UniProt O43614); test: FLIPR Ca2+ Flux Assay, hOX2R; assay type: cell-based; conditions: CHO cells expressing human orexin-2 receptor; agonist 70 pM Ala-6,12 human orexin-A
Protocol: (§1) The utility of the compounds in accordance with the present invention as orexin receptor OX1R and/or OX2R antagonists may be readily determined without undue experimentation by methodology well known in the art, including the “FLIPR Ca^2+ Flux Assay” (Okumura et al., Biochem. Biophys. Res. Comm. 280:976-981, 2001). In a typical experiment the OX1 and OX2 receptor antagonistic activity of the compounds of the present invention was determined in accordance with the following experimental method. For intracellular calcium measurements, Chinese hamster ovary (CHO) cells expressing the rat or human orexin-1 receptor or the human orexin-2 receptor, are grown in Iscove's modified DMEM containing 2 mM L-glutamine, […], 1% hypoxanthine-thymidine supplement, 100 U/ml penicillin, 100 μg/ml streptomycin and 10% heat-inactivated fetal calf serum (FCS). The cells are seeded at 20,000 cells/well into Becton-Dickinson black 384-well clear bottom sterile plates coated with poly-D-lysine. All reagents were from GIBCO-Invitrogen Corp. The seeded plates are incubated overnight at 37° C. and 5% CO2. Ala-6,12 human orexin-A as the agonist is prepared as a 1 mM stock solution in 1% bovine serum albumin (BSA) and diluted in assay buffer (HBSS containing 20 mM HEPES, 0.1% BSA and 2.5 mM probenecid, pH7.4) for use in the assay at a final concentration of 70 pM. Test compounds are prepared as 10 mM stock solution in DMSO, then diluted in 384-well plates, first in DMSO, then assay buffer. On the day of the assay, cells are washed 3 times with 100 μl assay buffer and then incubated for 60 min (37° C., 5% CO2) in 60 μl assay buffer containing 1 μM Fluo-4AM ester, 0.02% pluronic acid, and 1% BSA. The dye loading solution is then aspirated and cells are washed 3 times with 100 μl assay buffer. 30 μl of that same buffer is left in each well. Within the Fluorescent Imaging Plate Reader (FLIPR, Molecular Devices), test compounds are added to the plate in a volume of 25 μl, incubated for 5 min and finally 25 μl of agonist is added. Fluorescence is measured for each well at 1 second intervals for 5 minutes and the height of each fluorescence peak is compared to the height of the fluorescence peak induced by 70 pM Ala-6,12 orexin-A with buffer in place of antagonist. For each antagonist, IC50 value (the concentration of compound needed to inhibit 50% of the agonist response) is determined. Alternatively, compound potency can be assessed by a radioligand binding assay (described in Bergman et. al. Bioorg. Med. Chem. Lett. 2008, 18, 1425-1430) in which the inhibition constant (Ki) is determined in membranes prepared from CHO cells expressing either the OX1 or OX2 receptor. The intrinsic orexin receptor antagonist activity of a compound which may be used in the present invention may be determined by these assays.

[2] = target: human orexin-1 receptor (Homo sapiens (Human), UniProt O43613); test: FLIPR Ca2+ Flux Assay, hOX1R; assay type: cell-based; conditions: CHO cells expressing human orexin-1 receptor; agonist 70 pM Ala-6,12 human orexin-A
Protocol: as §1

human orexin-2 receptor, sequence (O43614 whole entry): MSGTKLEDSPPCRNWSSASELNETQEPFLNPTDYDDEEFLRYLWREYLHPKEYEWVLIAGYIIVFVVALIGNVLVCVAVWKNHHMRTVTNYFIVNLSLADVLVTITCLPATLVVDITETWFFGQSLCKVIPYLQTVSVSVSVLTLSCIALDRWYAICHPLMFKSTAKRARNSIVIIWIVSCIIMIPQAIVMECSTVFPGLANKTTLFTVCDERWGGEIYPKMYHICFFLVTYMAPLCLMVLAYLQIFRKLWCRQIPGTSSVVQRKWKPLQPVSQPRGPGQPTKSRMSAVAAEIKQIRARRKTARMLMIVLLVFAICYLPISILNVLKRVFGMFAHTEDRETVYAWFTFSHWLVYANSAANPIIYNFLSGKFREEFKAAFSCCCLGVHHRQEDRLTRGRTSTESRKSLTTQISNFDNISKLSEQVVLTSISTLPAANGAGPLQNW
human orexin-1 receptor, sequence (O43613 whole entry): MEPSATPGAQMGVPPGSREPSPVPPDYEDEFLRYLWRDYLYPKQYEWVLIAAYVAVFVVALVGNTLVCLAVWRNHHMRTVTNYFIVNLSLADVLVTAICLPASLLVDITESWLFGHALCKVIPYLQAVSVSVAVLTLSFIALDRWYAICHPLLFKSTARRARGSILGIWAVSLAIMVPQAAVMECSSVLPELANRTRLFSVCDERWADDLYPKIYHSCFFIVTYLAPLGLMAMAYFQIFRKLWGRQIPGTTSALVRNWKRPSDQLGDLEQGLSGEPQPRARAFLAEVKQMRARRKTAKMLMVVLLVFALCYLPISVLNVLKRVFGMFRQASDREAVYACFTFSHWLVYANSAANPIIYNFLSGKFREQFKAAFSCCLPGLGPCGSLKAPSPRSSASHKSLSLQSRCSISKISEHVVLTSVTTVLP

Compound	IC50 [1] [µM]	IC50 [2] [µM]
Cc1oc(CCN(CC(F)F)C(=O)c2ccccc2-n2nccn2)nc1C(C)(C)O [Example 24, N-(2,2-Difluoroethyl)-N-{2-[4-(1-hydroxy-1-methylethyl)-5-methyl-1,3-oxazol-2-yl]ethyl}-2-(2H-1,2,3-triazol-2-yl)benzamide]	0.068	> 10
Cc1oc(CCN(C(=O)c2ccccc2-n2nccn2)C(C)C)nc1C(C)(C)O [Example 25, N-{2-[4-(1-Hydroxy-1-methylethyl)-5-methyl-1,3-oxazol-2-yl]ethyl}-N-(1-methylethyl)-2-(2H-1,2,3-triazol-2-yl)benzamide]	0.152	> 10
Cc1oc(CCN(CCCO)C(=O)c2ccccc2-n2nccn2)nc1C(C)(C)O [Example 27, N-{2-[4-(1-Hydroxy-1-methylethyl)-5-methyl-1,3-oxazol-2-yl]ethyl}-N-(3-hydroxypropyl)-2-(2H-1,2,3-triazol-2-yl)benzamide]	0.304	> 10
Cc1oc(CCN(CCO)C(=O)c2ccccc2-n2nccn2)nc1C(C)(C)O [Example 28, N-(2-hydroxyethyl)-N-(2-(4-(2-hydroxypropan-2-yl)-5-methyloxazol-2-yl)ethyl)-2-(2H-1,2,3-triazol-2-yl)benzamide]	0.098	> 10
COCCN(CCc1nc(C(C)(C)O)c(C)o1)C(=O)c1ccccc1-n1nccn1 [Example 29, N-(2-(4-(2-Hydroxypropan-2-yl)-5-methyloxazol-2-yl)ethyl)-N-(2-methoxyethyl)-2-(2H-1,2,3-triazol-2-yl)benzamide]	0.019	> 10
Cc1oc(CCN(C)C(=O)c2ccccc2-n2nccn2)nc1C(C)(C)O [Example 30, N-(2-(4-(2-Hydroxypropan-2-yl)-5-methyloxazol-2-yl)ethyl)-N-methyl-2-(2H-1,2,3-triazol-2-yl)benzamide]	0.39	> 10
Cc1oc(CCN(C(=O)c2ccccc2-n2nccn2)C2CC2)nc1C(C)(C)O [Example 31, N-Cyclopropyl-N-(2-(4-(2-hydroxypropan-2-yl)-5-methyloxazol-2-yl)ethyl)-2-(2H-1,2,3-triazol-2-yl)benzamide]	0.042	7.59
Cc1oc(CCN(C(=O)c2ccccc2-n2nccn2)C2CCC2)nc1C(C)(C)O [Example 32, N-Cyclobutyl-N-(2-(4-(2-hydroxypropan-2-yl)-5-methyloxazol-2-yl)ethyl)-2-(2H-1,2,3-triazol-2-yl)benzamide]	0.038	8.18
COCCCN(CCc1nc(C(C)(C)O)c(C)o1)C(=O)c1ccccc1-n1nccn1 [Example 33, N-(2-(4-(2-Hydroxypropan-2-yl)-5-methyloxazol-2-yl)ethyl)-N-(3-methoxypropyl)-2-(2H-1,2,3-triazol-2-yl)benzamide]	0.119	> 10

From patent US10435398B2, “Oxazole orexin receptor antagonists” (MERCK SHARP & DOHME CORP., priority 2014, dated 2019)
